Key:
[1] = test system: recruitment of CtIP to DSB sites in IGROV1 cells; assay: immunofluorescence assay of CtIP co-localization with γH2AX after micro-irradiation; assay type: cell-based, human; settings: 1 μM, 30 minutes post irradiation
Protocol: H2AX (H2A histone family member X) becomes phosphorylated on serine 139 (wherein the phosphorylated form is then called […]) as a reaction on DNA double-strand breaks (DSB). And-1 regulates DSB end resection by establishing a condition or acting as a platform for recruitment of the tumor suppressor protein CtIP—a CtBP (carboxy-terminal binding protein)-interacting protein, to the DSB sites. […] In brief, IGROV1 cells were cultured on coverslips coated with 0.01% of poly-L-lysine. After treatment, the cells were then washed once with PBS, then pre-extracted with 0.5% Triton X-100 extraction buffer (10 mM PIPES pH 7.0, 100 mM NaCl, 3 mM MgCl2 and 300 mM sucrose) on ice for 5 minutes. After washing with PBS, cells were fixed with 4% paraformaldehyde in PBS for 15 minutes. Cells were then washed and incubated for 10 minutes in blocking buffer (PBS containing 3% BSA and 0.02% Tween-20) and subsequently incubated for 1 hour with a primary antibody at room temperature. Cells were washed three times with PBS-T (PBS containing 0.02% Tween-20) and then incubated with a secondary antibody (e.g., rabbit Alexa Fluor-594 and mouse Alexa Fluor-488). After washing with PBS-T, cells were mounted with Fluoromount G containing DAPI (4′,6-diamidino-2-phenylindole—a fluorescent stain that binds strongly to adenine-thymine-rich regions in DNA). Slides were then imaged using a Nikon Eclipse 80i microscope. […]

[2] = target: T1, And-1 (Homo sapiens, UniProt O75717); assay: immunoprecipitation of And-1 and anti-ubiquitin immunoblot in IGROV1 cells; assay type: cell-based; design: endogenous in cells; host or cells: IGROV1 CR
T1 sequence (O75717 1-1129): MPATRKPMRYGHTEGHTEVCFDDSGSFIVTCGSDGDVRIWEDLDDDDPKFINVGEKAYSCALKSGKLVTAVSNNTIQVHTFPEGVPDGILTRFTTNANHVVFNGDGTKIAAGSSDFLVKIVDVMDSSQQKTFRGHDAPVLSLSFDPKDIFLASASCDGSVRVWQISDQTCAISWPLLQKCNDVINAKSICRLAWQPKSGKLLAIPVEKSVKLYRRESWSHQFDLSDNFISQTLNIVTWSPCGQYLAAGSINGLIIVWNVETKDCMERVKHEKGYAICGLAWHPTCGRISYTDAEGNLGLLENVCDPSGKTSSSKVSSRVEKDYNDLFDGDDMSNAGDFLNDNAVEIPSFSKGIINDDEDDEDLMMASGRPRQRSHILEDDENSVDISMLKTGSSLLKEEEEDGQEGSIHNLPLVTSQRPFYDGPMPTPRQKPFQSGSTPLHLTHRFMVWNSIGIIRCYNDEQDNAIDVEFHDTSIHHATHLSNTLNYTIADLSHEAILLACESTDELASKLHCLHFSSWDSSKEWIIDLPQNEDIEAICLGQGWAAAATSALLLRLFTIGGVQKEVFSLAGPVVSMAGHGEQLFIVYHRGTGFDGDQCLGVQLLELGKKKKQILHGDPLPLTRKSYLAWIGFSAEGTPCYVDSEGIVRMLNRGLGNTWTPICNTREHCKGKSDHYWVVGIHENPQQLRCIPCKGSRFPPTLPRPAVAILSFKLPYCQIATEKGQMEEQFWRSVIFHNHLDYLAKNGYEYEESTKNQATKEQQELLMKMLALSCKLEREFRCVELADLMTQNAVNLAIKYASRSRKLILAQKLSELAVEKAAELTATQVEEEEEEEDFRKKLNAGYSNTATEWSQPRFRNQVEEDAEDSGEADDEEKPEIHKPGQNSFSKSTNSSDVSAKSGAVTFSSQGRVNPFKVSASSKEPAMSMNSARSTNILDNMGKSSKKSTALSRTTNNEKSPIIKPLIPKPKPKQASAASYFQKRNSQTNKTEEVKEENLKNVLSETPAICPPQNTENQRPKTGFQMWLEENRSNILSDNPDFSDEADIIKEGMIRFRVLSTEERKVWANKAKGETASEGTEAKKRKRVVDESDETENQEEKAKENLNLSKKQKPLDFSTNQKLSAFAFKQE
Protocol: IGROV1 cells were treated with CH3 in the absence and presence of the 26S proteasome inhibitor MG132 (Benzyl N-[(2S)-4-methyl-1-[[(2S)-4-methyl-1-[[(2S)-4-methyl-1-oxopentan-2-yl]amino]-1-oxopentan-2-yl]amino]-1-oxopentan-2-yl]carbamate). […] Protein degradation through the proteasome requires conjugation of one or more ubiquitin molecules to the target. To address whether And-1 was modified by ubiquitin in IGROV1 cells treated with CH3, And-1 protein was immunoprecipitated and probed with anti-ubiquitin antibody.

[3] = target: T2, And-1 polymerization (Homo sapiens, UniProt O75717); assay: FLAG-And-1 / HA-And-1 co-immunoprecipitation in U2OS cells; assay type: cell-based
T2 construct: expressed in transfected cells; host or cells: U2OS
T2 sequence (O75717 1-1129): T1 sequence (O75717 1-1129)
Source text: Human And-1 exists as a homotrimer mediated by the SepB domain. To determine whether the interaction of CH3 with the WD40 domain can disrupt And-1 polymerization, resulting in exposure of CUL4B binding site on And-1 to CUL4B, both FLAG-And-1 and HA-And-1 were transfected into U2OS cells and the protein-protein interaction was examined in the presence of CH3.

[4] = test system: NCI 60 tumor cell lines; assay: NCI 60 tumor cell lines growth assay; assay type: cell-based
Protocol: To test this hypothesis, inhibition of CH3 on cancer cells was evaluated by using NCI 60 tumor cell lines.

[5] = test system: IGROV1 CR cells; assay: clonogenic assay, combination with cisplatin; assay type: cell-based, human
Protocol: Clonogenic survival assays were also performed. In brief, cells were seeded in 6-well dishes at a density of 500 cells per dish then treated with the cisplatin at the indicated concentrations (See FIGS. 23 and 24). Cells were then kept in the incubator for 10-14 days to allow colony formation. Colonies were visualized by crystal violet staining. Colonies with >50 cells were counted.

OB1OCc2cc(/C=C/c3ccc(Cl)c(Cl)c3)ccc21 [CH3]
recruitment of CtIP to DSB sites induced by micro-irradiation [1]: significantly decreased
ubiquitinated And-1 bands [2]: increased
interaction between HA-And-1 and FLAG-And-1 [3]: significantly decreased
cancer cell growth inhibition ([4]; 0.01-100 μM, 60 tumor cell lines): inhibited cancer cell growth in all 60 tumor cell lines in a dose dependent manner
mean growth percentage ([4]; one dose assay, 10 μM, against 60 tumor cell lines): 1.84%
synergy with cisplatin on clonogenic capacity [5]: synergy with cisplatin to reduce clonogenic capacity

Source: US12258360B2, “Compositions and methods for treatment of anticancer-drug resistant cancers” (THE GEORGE WASHINGTON UNIVERSITY, priority 2020, dated 2025)
